Data reported in patent US20040029871A1, “Pharmaceutical compounds for treating copd” (priority 2000, published 2004).
Where two headings read alike, the source gives them in different places.

Legend:
human MPO = molecular target: T1, human MPO (Homo sapiens, UniProt P05164); assay: in vitro MPO assay measuring production of hypochlorus acid (HOCl); format: biochemical; settings: for Inhibition of human MPO-HOCl production, pIC50: 2.5 nM purified human MPO, 100 uM H2O2, pH 6.5, 15 min preincubation, 10 min at room temperature, pIC50 = -log IC50
T1 construct: purchased Planta
T1 sequence (P05164 279-745 limits assumed): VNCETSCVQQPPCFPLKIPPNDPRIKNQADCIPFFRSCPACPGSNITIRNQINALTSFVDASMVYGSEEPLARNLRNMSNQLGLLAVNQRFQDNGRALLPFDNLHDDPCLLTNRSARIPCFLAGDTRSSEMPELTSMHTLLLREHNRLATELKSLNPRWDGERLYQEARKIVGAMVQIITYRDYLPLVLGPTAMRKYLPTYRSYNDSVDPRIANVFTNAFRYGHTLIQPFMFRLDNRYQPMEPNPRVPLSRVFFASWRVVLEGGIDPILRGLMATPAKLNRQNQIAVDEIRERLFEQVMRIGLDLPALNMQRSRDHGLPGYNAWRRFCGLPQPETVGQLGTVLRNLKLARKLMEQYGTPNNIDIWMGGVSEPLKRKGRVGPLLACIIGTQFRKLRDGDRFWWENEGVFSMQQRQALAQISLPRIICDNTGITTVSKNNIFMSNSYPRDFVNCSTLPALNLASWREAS
T1 sequence (P05164 165-273 limits assumed): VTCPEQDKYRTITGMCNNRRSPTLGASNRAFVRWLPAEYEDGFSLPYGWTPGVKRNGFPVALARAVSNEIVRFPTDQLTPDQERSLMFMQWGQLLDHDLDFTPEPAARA
Experimental: Here we describe an in vitro MPO assay that was developed to assess inhibition of enzyme activity. Essentially the MPO assay was designed to measure the production of hypochlorus acid (HOCl), which is the key physiological product generated by the enzyme in vivo. An outline of the assay reactions is given: [drawing 5]
Compounds were preincubated with the MPO enzyme in buffer for about 15 min prior to start of reaction with H2O2. The whole reaction was carried out at room temperatutre for 10 min in a 96-well plate. […] All test concentrations were done in duplicated with at least two separate determinations n=2, unless otherwise stated. The inhibitory concentration for a compound is presentated as pIC50, which is −log IC50.

[1] = system: stimulated human neutrophils; assay: functional human neutrophil assay, HOCl production by PMA-stimulated neutrophils; format: cell-based; settings: 2x10^6 neutrophils, PMA 1 μg/ml, 15 min preincubation, 30 min at 37C, read-out: Inhibition of HOCl production by stimulated human neutrophils, pIC50 (converted)
Experimental: Here we describe the use of a functional human neutrophil assay to determine the effects of MPO inhibitors on the production of HOCl. This assay detects the production of HOCl from stimulated (e.g. PMA, LPS, fMLP, zymozan) human neutrophils. Human neutrophils were purified from fresh heparinised blood by density centrifugation on Polymorphprep (Nycomed). These neutrophils were used immediately after purification. A standard reaction mixture contained the following: 2×10^6 neutrophils, 140 mM NaCl, 5 mM taurine, 0.5 mM MgCl2, 1 mM CaCl2 and 1 mg/ml glucose. Test compounds were made up in DMSO and added to cells, with a final DMSO concentration of 0.5%. Test compounds were given 15 min preincubation at 37C with neutrophils prior to the addition of the PMA stimulant (1 μg/ml). The assay was then allowed to progress for another 30 min at 37C. At the end of the incubation, supernatants were collected by centrifugation and assayed for HOCl by using the stop/development reagent as above. All compounds were tested in duplicate with at least two separate determinations n=2 from two different donors.

[2] = read-out: Inhibition of human MPO-HOCl production, pIC50 (converted)

| Compound | IC50 (human MPO; [2]) | further results |
| --- | --- | --- |
| CCOC(=O)c1cccc(N)c1 [3-Aminobenzoic acid ethylester] | 631 nM | – |
| Cc1c[nH]c2ccccc12 [3-Methylindole] | 1260 nM | – |
| COc1ccc2[nH]ccc2c1 [5-Methoxyindole] | 2510 nM | – |
| COc1ccc2[nH]cc(CCN)c2c1 [5-Methoxytryptamine] | – | IC50 (human MPO): 631 nM |
| COc1ccc2[nH]cc(CCO)c2c1 [5-Methoxytryptophol] | – | Inhibition of human MPO-HOCl production, pIC50 (human MPO): 6.3 |
| COc1ccc2cc[nH]c2c1 [6-Methoxyindole] | 1580 nM | – |
| Nc1ccc(S(=O)(=O)c2ccc(N)cc2)cc1 [Dapsone] | 631 nM | IC50 [1]: 20000 nM; relative potency as inhibitor of HOCl production by human MPO (in words) (human MPO; human MPO): most potent inhibitor of the sulfones/sulfonamides tested |
| c1ccc2[nH]ccc2c1 [Indole] | – | IC50 (human MPO): 2000 nM |
| COc1ccc2[nH]cc(CCNC(C)=O)c2c1 [Melatonin] | 794 nM | – |
| Nc1ccc(S(=O)(=O)Nc2nccs2)cc1 [N-1(2 thiazolyl)-sulfanilamide] | – | Inhibition of human MPO-HOCl production, pIC50 (human MPO): 6.0 |
| CN1C(C(=O)Nc2ccccn2)=C(O)c2ccccc2S1(=O)=O [Piroxicam] | 2510 nM | – |
| COc1cc(NC(C)CCCN)c2ncccc2c1 (stereo not drawn) [Primaquine] | – | IC50 [1]: 12600 nM |
| Nc1ccc(S(=O)(=O)Nc2ncccn2)cc1 [Sulfadiazine] | 6310 nM | – |
| [H]/N=C(/N)NS(=O)(=O)c1ccc(N)cc1 [Sulfaguanidine] | 3160 nM | – |
| Nc1ccc(S(N)(=O)=O)cc1 [Sulfanilamide] | 1000 nM | IC50 [1]: 15800 nM |
| CC(=O)Nc1ccc(S(=O)(=O)Nc2ccc([N+](=O)[O-])cc2)cc1 [Sulfanitran] | 7940 nM | – |
| Nc1ccc(S(=O)(=O)Nc2ccccn2)cc1 [Sulfapyridine] | 2000 nM | IC50 [1]: 31600 nM |
| Cc1noc(NS(=O)(=O)c2ccc(N)cc2)c1C [Sulfisoxazole] | 6310 nM | – |
| COc1cc(C=O)ccc1O [Vanillin] | 7940 nM | – |
| N=C(N)c1ccc(N)cc1 [p-Aminobenzamidine] | 2510 nM | – |
